“And” between values parts separate entries of the source, which are not always exact repeats. Equal values may be shown once.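 Interpolation was linear, between the two tested concentrations surrounding the appropriate level; five concentrations were tested over 48 hours in 96-well plates. GI50 = concentration required for 50% inhibition of growth. The concentration for full growth arrest is given as TGI.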
What was measured:
Experiment in all cases: DTP human tumour cell line panel, 48 h
CAKI-1 renal = system: CAKI-1 renal
DU-145 prostate = system: DU-145 prostate
HCC-2998 colon = system: HCC-2998 colon
M14 melanoma = system: M14 melanoma
MALME-3M melanoma = system: MALME-3M melanoma
OVCAR-5 ovarian = system: OVCAR-5 ovarian
PC-3 prostate = system: PC-3 prostate
RXF 393 renal = system: RXF 393 renal
SK-MEL-28 melanoma = system: SK-MEL-28 melanoma
SNB-75 CNS = system: SNB-75 CNS

Row | Compound | GI50 (CAKI-1 renal) | TGI (CAKI-1 renal) | GI50 (DU-145 prostate) | TGI (DU-145 prostate) | GI50 (HCC-2998 colon) | TGI (HCC-2998 colon) | GI50 (M14 melanoma) | TGI (M14 melanoma) | GI50 (MALME-3M melanoma) | TGI (MALME-3M melanoma) | GI50 (OVCAR-5 ovarian) | TGI (OVCAR-5 ovarian) | GI50 (PC-3 prostate) | TGI (PC-3 prostate) | GI50 (RXF 393 renal) | TGI (RXF 393 renal) | GI50 (SK-MEL-28 melanoma) | TGI (SK-MEL-28 melanoma) | GI50 (SNB-75 CNS) | TGI (SNB-75 CNS)
1 | O=C(CN(C1CCCCC1)C1CCCCC1)Nc1ccc(S(=O)(=O)c2ccc(NC(=O)CN(C3CCCCC3)C3CCCCC3)cc2)cc1 | 1.14 µM | 2.35 µM | 1.14 µM | 2.38 µM | 1.7 µM | 3.22 µM | 0.373 µM | 1.69 µM | 0.334 µM | 1.3 µM | 1.13 µM | 2.52 µM | 0.985 µM | 2.35 µM | 0.817 µM | 2.31 µM | 1.21 µM | 2.82 µM | 2.27 µM | 9.32 µM
2 | CC(=O)c1c(CBr)n([O-])c2ccccc2[n+]1=O | 12.9 µM | 25.8 µM | 12.8 µM | 25.5 µM | 17.6 µM | 34.5 µM | 12.1 µM | 25.6 µM | 4.48 µM | 17.4 µM | 18.5 µM | 44.4 µM | 15.5 µM | 33.1 µM | 15.3 µM | 32.6 µM | 13 µM | 27.7 µM | 14.7 µM | 29.6 µM
3 | O=C(Nc1cccc(Cl)c1)c1cc2ccccc2cc1O | 2.1 µM and 1.51 µM | > 100 µM | 3.07 µM and 2.38 µM | > 100 µM | 3.9 µM and 3.39 µM | > 100 µM | 3.67 µM and 2.24 µM | > 100 µM | 0.71 µM | 21.9 µM | 6.59 µM and 1.98 µM | > 100 µM | 1.73 µM and 2 µM | > 100 µM | 2.74 µM and 2.93 µM | > 100 µM and 14.5 µM | 2.69 µM and 0.554 µM | > 100 µM | 1.62 µM and 1.55 µM | > 100 µM
4 | NC(N)=N/N=C/c1cc(Cl)cc(Cl)c1O | – | > 100 µM | – | > 100 µM | – | 32 µM | – | > 100 µM | – | > 100 µM | – | > 100 µM | – | > 100 µM | – | > 100 µM | – | > 100 µM | – | 89.1 µM
5 | Cc1ccc(Nc2nc(N)c(C(=O)c3ccc(C#N)cc3)s2)cc1 | 0.402 µM | 25 µM | 0.675 µM | > 100 µM | 1.59 µM | > 53.9 µM | 0.308 µM | > 100 µM | 5.25 µM | > 100 µM | 2.98 µM | > 100 µM | 0.347 µM | > 100 µM | 0.398 µM | 7.44 µM | 18.9 µM | > 100 µM | 0.241 µM | 8.11 µM
6 | COc1ccc(CNc2c3ccccc3nc3ccccc23)cc1OC | 1.87 µM | 6.33 µM | 2.8 µM | 8.43 µM | 2.28 µM | 8.76 µM | 1.97 µM | 4.76 µM | 1.95 µM | 4.98 µM | 2.56 µM | 11 µM | 2.58 µM | 9.97 µM | 1.49 µM | 3.64 µM | 3.14 µM | 10.8 µM | 2.39 µM | 11.3 µM
7 | CC(=O)O[C@@H]1C[C@]2(C(C)C)O[C@@]1(C)[C@@H]1CCC(C)=C1[C@@H]2OC(=O)/C=C/c1ccccc1 | 13 µM | > 100 µM | 70.1 µM | > 100 µM | 68.1 µM | > 100 µM | 40.1 µM | > 100 µM | 39.2 µM | > 100 µM | > 100 µM | > 100 µM | 8.33 µM | > 100 µM | 8.83 µM | 65.9 µM | 69.9 µM | > 100 µM | 27.9 µM | > 100 µM
8 | CCCS(=O)(=O)Nc1ccc(Nc2c3ccccc3nc3ccccc23)c(OC)c1 | – | 13.7 µM | – | 4.54 µM | – | 6.3 µM | – | 17.8 µM | – | 6.68 µM | – | 23.6 µM | – | 17.6 µM | – | 14.9 µM | – | 1.3 µM | – | 6.49 µM
9 | O=C(O)c1ccccc1-c1ccccc1C(=O)Nc1ccc2c(c1)Cc1cc(F)ccc1-2 | – | > 100 µM | – | > 100 µM | – | 33.8 µM | – | 40 µM | – | 88.7 µM | – | 88.1 µM | – | 68.2 µM | – | > 100 µM | – | > 100 µM | – | > 100 µM
10 | N#CC1Nc2ccccc2[C@@H](O)C1O (stereo not given in full) | – | > 100 µM | – | > 100 µM | – | > 100 µM | – | > 100 µM | – | > 100 µM | – | > 100 µM | – | > 100 µM | – | > 100 µM | – | > 100 µM | – | > 100 µM
11 | CN1CCc2c(Sc3ccc(C(=O)NO)cc3)c3ccccc3n2C1 | 3.95 µM | 14.5 µM | 2.57 µM | 9.37 µM | 1.77 µM | 3.86 µM | 1.81 µM | 4.53 µM | 1.12 µM | 4.33 µM | 2.6 µM | 10.7 µM | 1.63 µM | 4.01 µM | 2.37 µM | 9.51 µM | 1.58 µM | 3.98 µM | 0.674 µM | 3.79 µM
12 | Cc1[nH]n(-c2cccc(Cl)c2)c(=O)c1/C=C1\C=Nc2ccc(Br)cc21 | 2.43 µM | 13.5 µM | 5.71 µM | > 100 µM | 14.3 µM | > 100 µM | 14.1 µM | > 100 µM | 3.15 µM | 13.1 µM | 3.1 µM | 10.2 µM | 3.64 µM | 22.3 µM | 1.86 µM | 4.01 µM | 19.6 µM | > 100 µM | 1.25 µM | 3.37 µM
13 | O=C(Nc1ccc(Cl)cc1F)c1cc(Br)ccc1O | 0.505 µM | 4.19 µM | 1.89 µM | > 100 µM | 2.73 µM | 13.3 µM | 0.751 µM | 3.75 µM | 0.595 µM | 2.65 µM | 3.71 µM | > 100 µM | 1.83 µM | 8.53 µM | 0.799 µM | 3.75 µM | 0.563 µM | 3.19 µM | 0.468 µM | 2.87 µM
14 | NC(=O)C(=CNc1nc(-c2ccc(Cl)c(Cl)c2)cs1)C(N)=O | 25.3 µM | > 100 µM | > 100 µM | > 100 µM | > 100 µM | > 100 µM | > 100 µM | > 100 µM | > 100 µM | > 100 µM | > 100 µM | > 100 µM | > 100 µM | > 100 µM | > 100 µM | > 100 µM | > 100 µM | > 100 µM | > 100 µM | > 100 µM
15 | COc1ccccc1/C=C/c1cnccn1 | – | > 10 µM | – | > 10 µM | – | > 10 µM | – | > 10 µM | – | > 10 µM | – | > 10 µM | – | > 10 µM | – | > 10 µM | – | > 10 µM | – | > 10 µM
